The target in assay [1] is Human CB1R (Cannabinoid receptor 1) (Homo sapiens (Human), UniProt P21554). As to the kind of experiment: CB-1 in vitro cAMP assay (HTRF), inverse agonism. It is filed as cell-based. The note with it: mean where tested more than once.
Assay [2] concerns the target Human CB2R (Cannabinoid receptor 2) (Homo sapiens (Human), UniProt P34972). Kind of assay: CB-2 in vitro cAMP assay (HTRF), inverse agonism. The settings on record: mean where tested more than once. The class given is cell-based.

Structures are written as SMILES. pEC50: −log10 of the molar value. Where a name gives a salt, the structure may show the parent alone. Bounds are passed on as bounds.

Chain of Human CB2R (Cannabinoid receptor 2) (P34972 whole entry): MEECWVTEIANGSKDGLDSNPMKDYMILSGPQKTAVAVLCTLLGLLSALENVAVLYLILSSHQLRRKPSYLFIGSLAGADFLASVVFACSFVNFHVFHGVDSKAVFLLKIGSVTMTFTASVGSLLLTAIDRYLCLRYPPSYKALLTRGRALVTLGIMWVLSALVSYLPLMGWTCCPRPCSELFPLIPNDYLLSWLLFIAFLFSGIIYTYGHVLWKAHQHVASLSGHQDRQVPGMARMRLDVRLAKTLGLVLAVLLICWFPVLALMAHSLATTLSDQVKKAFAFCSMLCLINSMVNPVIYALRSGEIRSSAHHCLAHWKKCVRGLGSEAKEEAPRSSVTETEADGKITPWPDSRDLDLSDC
Chain of Human CB1R (Cannabinoid receptor 1) (P21554 whole entry): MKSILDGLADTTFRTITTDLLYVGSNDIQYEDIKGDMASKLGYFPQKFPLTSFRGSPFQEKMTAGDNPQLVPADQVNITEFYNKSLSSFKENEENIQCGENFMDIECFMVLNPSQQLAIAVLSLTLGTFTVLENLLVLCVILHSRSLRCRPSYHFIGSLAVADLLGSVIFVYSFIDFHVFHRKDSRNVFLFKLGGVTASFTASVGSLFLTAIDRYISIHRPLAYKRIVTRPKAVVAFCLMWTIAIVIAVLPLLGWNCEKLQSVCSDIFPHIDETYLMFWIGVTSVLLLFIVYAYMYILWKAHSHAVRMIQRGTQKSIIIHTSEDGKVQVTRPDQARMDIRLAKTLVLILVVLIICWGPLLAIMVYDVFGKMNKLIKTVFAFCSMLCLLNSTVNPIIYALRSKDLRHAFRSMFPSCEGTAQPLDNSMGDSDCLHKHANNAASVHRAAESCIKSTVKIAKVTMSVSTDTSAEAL

For the compound `O=c1cc(Nc2ccc(-c3ccccc3)cc2)c2cc(C(c3ccc(Cl)cc3)c3ccc(Cl)cc3)ccc2[nH]1` [Compound 133, 4-(Biphenyl-4-ylamino)-6-[bis(4-chlorophenyl)methyl]-quinolin-2(1H)-one], the negative logarithm of the EC50 (pEC50) was 7.14 in assay [1] and under 5.00 in assay [2].

Consider `O=C(O)c1cccc(S(=O)(=O)N2CCC(Nc3cc(=O)[nH]c4ccc(C(c5ccc(Cl)cc5)c5ccc(Cl)cc5)cc34)CC2)c1` [Compound 84, 3-{[4-({6-[Bis(4-chlorophenyl)methyl]-2-oxo-1,2-dihydroquinolin-4-yl}amino)piperidin-1-yl]sulfonyl}benzoic acid], for which the pEC50 in assay [1] is 6.57; in assay [2] it was 5.05.

For `CC(Nc1cc(=O)[nH]c2ccc(C(c3ccc(Cl)cc3)c3ccc(Cl)cc3)cc12)c1cccc(C(F)(F)F)c1` (stereo not drawn) [Compound 74, 6-[Bis(4-chlorophenyl)methyl]-4-({1-[3-(trifluoromethyl)phenyl]ethyl}amino)quinolin-2(1H)-one], the pEC50 in assay [1] was 7.44; in assay [2], under 5.00.

Turning to `COCCOc1ccc(Nc2cc(=O)[nH]c3ccc(C(c4ccc(Cl)cc4)c4ccc(Cl)cc4)cc23)cc1` [Compound 94, 6-[Bis(4-chlorophenyl)methyl]-4-{[4-(2-methoxyethoxy)phenyl]-amino}quinolin-2(1H)-one], the pEC50 in assay [1] was 7.26; in assay [2], under 5.00.

Consider `O=C(O)COc1cc(C(c2ccc(Cl)cc2)c2ccc(Cl)cc2)cc2c(NC3CCN(S(=O)(=O)C(F)(F)F)CC3)cc(=O)[nH]c12` [Compound 545], for which the pEC50 in assay [1] was 5.31; in assay [2] it was under 5.00.

Regarding `CCOC(=O)CCC(=O)N1CCC(Nc2cc(=O)[nH]c3ccc(C(c4ccc(Cl)cc4)c4ccc(Cl)cc4)cc23)CC1` [Compound 97, ethyl 4-[4-([6-[bis(4-chlorophenyl)methyl]-2-hydroxyquinolin-4-yl]amino)piperidin-1-yl]-4-oxobutanoate], the results for the pEC50 in assay [1] and in assay [2] were 7.51 and 5.00, respectively.

For the compound `O=c1cc(NC2CCN(c3ccccn3)CC2)c2cc(C(c3ccc(Cl)cc3)c3ccc(Cl)cc3)ccc2[nH]1` [Compound 68, 6-[Bis(4-chlorophenyl)methyl]-4-[(1-pyridin-2-ylpiperidin-4-yl)amino]quinolin-2(1H)-one], the figures for the pEC50 in assay [1] and in assay [2] were 8.22 and under 5.00, respectively.

Consider `NC(=O)CCC(=O)N1CCC(Nc2cc(=O)[nH]c3ccc(C(c4ccc(Cl)cc4)c4ccc(Cl)cc4)cc23)CC1` [Compound 112, 4-[4-({6-[Bis(4-chlorophenyl)methyl]-2-oxo-1,2-dihydroquinolin-4-yl}amino)piperidin-1-yl]-4-oxobutanamide], for which the pEC50 in assay [1] is 6.52; in assay [2] it was under 5.00.

As to `O=c1cc(/C=C/c2ccc(C(F)(F)F)cc2)c2cc(C(c3ccccc3)c3ccc(Cl)cc3)ccc2[nH]1` (stereo not drawn) [Compound 33, 6-[(4-Chlorophenyl)(phenyl)methyl]-4-{(E)-2-[4-(trifluoromethyl)phenyl]-ethenyl}quinolin-2(1H)-one], the values for the pEC50 in assay [1] and in assay [2] were 5.92 and under 5.00, respectively.

`CC(C)(C)OC(=O)N1CC=C(c2cc(=O)[nH]c3ccc(C(c4ccc(Cl)cc4)c4ccc(Cl)cc4)cc23)CC1` [Compound 13, tert-Butyl 4-{6-[bis(4-chlorophenyl)methyl]-2-oxo-1,2-dihydroquinolin-4-yl}-3,6-dihydropyridine-1(2H)-carboxylate]: the values for the pEC50 in assay [1] and in assay [2] were 6.39 and under 5.00, respectively.

Regarding `O=c1cc(NC2CCN(S(=O)(=O)C(F)(F)F)CC2)c2cc(C(c3ccc(F)cc3)c3ccc(Cl)cc3)ccc2[nH]1` (stereo not drawn) [Compound 52, 6-[(4-Chlorophenyl)(4-fluorophenyl)methyl]-4-({1-[(trifluoromethyl)sulfonyl]-piperidin-4-yl}amino)quinolin-2(1H)-one], the pEC50 in assay [1] is 7.64; in assay [2], 5.15.

Regarding `O=c1cc(/C=C/c2ccccc2)c2cc(C(c3ccc(Cl)cc3)c3nccs3)ccc2[nH]1` (stereo not drawn) [Compound 25, (E)-6-((4-chlorophenyl)(thiazol-2-yl)methyl)-4-styrylquinolin-2(1H)-one], the pEC50 in assay [1] was 6.09; in assay [2], under 5.00.

Turning to `O=c1cc(NC2CCN(S(=O)(=O)c3cccc(F)c3)CC2)c2cc(C(c3ccc(Cl)cc3)c3ccc(Cl)cc3)ccc2[nH]1` [Compound 82, 6-[Bis(4-chlorophenyl)methyl]-4-({1-[(3-fluorophenyl)sulfonyl]-piperidin-4-yl}amino)quinolin-2(1H)-one], the pEC50 in assay [1] was 7.20; in assay [2] it was 5.49.

Regarding `O=c1cc(NC2CCN(S(=O)(=O)C(F)(F)F)CC2)c2cc(C(c3ccc(Cl)cc3)c3nc4ccccc4s3)ccc2[nH]1` (stereo not drawn) [Compound 65, 6-[1,3-Benzothiazol-2-yl(4-chlorophenyl)methyl]-4-({1-[(trifluoromethyl)sulfonyl]-piperidin-4-yl}amino)quinolin-2(1H)-one], the results for the pEC50 in assay [1] and in assay [2] were 7.19 and 5.37, respectively.

For `O=c1cc(NC2CCN(c3ncccn3)CC2)c2cc(C(c3ccc(Cl)cc3)c3ccc(Cl)cc3)ccc2[nH]1` [Compound 57, 6-(bis(4-chlorophenyl)methyl)-4-((1-(pyrimidin-2-yl)piperidin-4-yl)amino)quinolin-2(1H)-one], the pEC50 was 7.96 in assay [1] and 5.39 in assay [2].

Turning to `CC(=O)NCCCCOc1cc(C(c2ccc(Cl)cc2)c2ccc(Cl)cc2)cc2c(NC3CCN(S(=O)(=O)C(F)(F)F)CC3)ccnc12` [Compound 543, N-(4-((6-(bis(4-chlorophenyl)methyl)-4-((1-((trifluoromethyl)sulfonyl)piperidin-4-yl)amino)quinolin-8-yl)oxy)butyl)acetamide, trifluoroacetic acid salt], the negative logarithm of the EC50 (pEC50) was 6.99 in assay [1] and under 5.00 in assay [2].

For the compound `COc1ccc(C(c2ccc(Cl)cc2)c2ccc3[nH]c(=O)cc(/C=C/c4ccccc4)c3c2)cc1` (stereo not drawn) [Compound 514, (E)-6-((4-chlorophenyl)(4-methoxyphenyl)methyl)-4-styrylquinolin-2(1H)-one], the pEC50 was 6.37 in assay [1] and under 5.00 in assay [2].

For `O=c1cc(NC2CCN(S(=O)(=O)C3CC3)CC2)c2cc(C(c3ccc(Cl)cc3)c3ccc(Cl)cc3)ccc2[nH]1` [Compound 67, 6-[Bis(4-chlorophenyl)methyl]-4-{[1-(cyclopropylsulfonyl)piperidin-4-yl]amino}quinolin-2(1H)-one], the pEC50 is 7.82 in assay [1] and under 5.00 in assay [2].

With `NC(=O)Cc1ccc(Nc2cc(=O)[nH]c3ccc(C(c4ccc(Cl)cc4)c4ccc(Cl)cc4)cc23)cc1` [Compound 126, 2-[4-({6-[Bis(4-chlorophenyl)methyl]-2-oxo-1,2-dihydroquinolin-4-yl}amino)phenyl]acetamide], the pEC50 in assay [1] was 7.10; in assay [2] it was 5.09.

In the case of `O=c1cc(NC2CCN(S(=O)(=O)C(F)(F)F)CC2)c2cc(C(c3ccc(Cl)cc3)c3ccc(C(F)(F)F)cc3)ccc2[nH]1` (stereo not drawn) [Compound 62, 6-{(4-Chlorophenyl)[4-(trifluoromethyl)phenyl]methyl}-4-({1-[(trifluoromethyl)sulfonyl]-piperidin-4-yl}amino)quinolin-2(1H)-one], the results for the pEC50 in assay [1] and in assay [2] were 7.54 and 5.49, respectively.

`NC(=O)c1ccc(Nc2cc(=O)[nH]c3ccc(C(c4ccc(Cl)cc4)c4ccc(Cl)cc4)cc23)cc1` [Compound 87, 4-({6-[Bis(4-chlorophenyl)methyl]-2-oxo-1,2-dihydroquinolin-4-yl}amino)benzamide]: the pEC50 in assay [1] was 5.50; in assay [2] it was under 5.00.

Source of the values: patent US9266835B2, “Quinoline derivatives useful as CB-1 inverse agonists” (JANSSEN PHARMACEUTICA NV, priority 2014, dated 2016).
